Laboratory results reported in patent US11884675B2, “Heterocyclic compounds as triggering receptor expressed on myeloid cells 2 agonists and methods of use” (AMGEN INC., priority 2020, dated 2024).

Target: hTREM2 (Homo sapiens, UniProt Q9NZC2)
Test: TREM2 activity by cellular Syk phosphorylation (AlphaScreen/AlphaLISA) in TREM2/DAP12-HEK cells, used for Examples 1-305
Assay type: cell-based
Parameters: expressed in transfected cells
Details: HEK293 Cells
How it was run: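 Single-cell-cloned HEK293 cells overexpressing TREM2 and DAP12, seeded 20 h, exposed to test articles (1% final DMSO) for 45 min at room temperature. Lysates read for phospho-Syk (Tyr525/526) vs total Syk by AlphaScreen. Signal normalised as percent of control between isotype IgG and 100 nM anti-TREM2 antibody; 4-parameter logistic fit.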

hTREM2, sequence (Q9NZC2 19-230): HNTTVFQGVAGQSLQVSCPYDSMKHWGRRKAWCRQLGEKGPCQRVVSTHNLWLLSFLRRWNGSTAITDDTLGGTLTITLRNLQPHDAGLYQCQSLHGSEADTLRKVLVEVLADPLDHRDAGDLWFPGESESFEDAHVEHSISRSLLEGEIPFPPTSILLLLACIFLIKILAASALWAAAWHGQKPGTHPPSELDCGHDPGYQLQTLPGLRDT
hTREM2, sequence (O43914 22-113 partner): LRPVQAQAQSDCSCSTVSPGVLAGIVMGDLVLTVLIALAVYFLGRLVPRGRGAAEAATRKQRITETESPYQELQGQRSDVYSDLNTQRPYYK

Structure (SMILES) | EC50 [nM] | hTREM2 Emax
Cc1nc2nc(N3CCO[C@@H](c4cnn(C)c4)C3)nc(-c3ccc(Cl)cc3F)c2cc1Cl [Example 116, 6-chloro-4-(4-chloro-2-fluorophenyl)-7-methyl-2-((2S)-2-(1-methyl-1H-pyrazol-4-yl)-4-morpholinyl)pyrido[2,3-d]pyrimidine] | ≤ 50 | +++ (Emax>150 and ≤250)
Cc1ncc([C@@H]2CN(c3nc(-c4ccc(C(F)(F)F)nc4)c4nc(C)c(C)nc4n3)CCO2)cn1 [Example 295, (R)-4-(6,7-dimethyl-4-(6-(trifluoromethyl)pyridin-3-yl)pteridin-2-yl)-2-(2-methylpyrimidin-5-yl)morpholine] | ≤ 50 | +++ (Emax>150 and ≤250)
Cc1ccc2c(-c3ccc(Cl)cc3F)nc(N3CCO[C@@H](c4cnc(C)nc4)C3)nc2n1 (single isomer, unassigned) [Example 90] | 50 to 500 | +++ (Emax>150 and ≤250)
Cc1cc(Cl)ccc1-c1nc(N2CCO[C@@H](c3cnn(C)c3)C2)nc2nc(C)c(C)nc12 [Example 58, 4-(4-chloro-2-methylphenyl)-6,7-dimethyl-2-((2S)-2-(1-methyl-1H-pyrazol-4-yl)-4-morpholinyl)pteridine] | 50 to 500 | +++ (Emax>150 and ≤250)
CCN1Cc2c(cc(N3CCO[C@@H](c4cnn(C)c4)C3)nc2-c2ccc(Cl)cc2F)C1=O [Example 121, 4-(4-chloro-2-fluorophenyl)-2-ethyl-6-((2S)-2-(1-methyl-1H-pyrazol-4-yl)-4-morpholinyl)-2,3-dihydro-1H-pyrrolo[3,4-c]pyridin-1-one] | 50 to 500 | ++++ (Emax>250)
Cc1cc([C@H]2C[C@H](c3nc(-c4ccc(Cl)cc4F)c4ccc(C)nc4n3)CCO2)ccn1 (single isomer, unassigned) [Example 219] | 50 to 500 | ++++ (Emax>250)
Cc1cnc2c(-c3ccc(Cl)cc3F)nc(N3CCO[C@@H](c4cnn(C5COC5)c4)C3)cc2n1 [Example 129, 5-(4-chloro-2-fluorophenyl)-2-methyl-7((2S)-2-(1-(3-oxetanyl)-1H-pyrazol-4-yl)-4-morpholinyl) pyrido[3,4-b]pyrazine] | 50 to 500 | ++++ (Emax>250)
COc1cc([C@H]2C[C@@H](c3nc(-c4ccc(Cl)cc4F)c4nc(C)c(C)nc4n3)CCO2)ccn1 (single isomer, unassigned) [Example 208] | ≤ 50 | +++ (Emax>150 and ≤250)
Cc1nc2nc(N3CCO[C@@H](c4cnn(C)c4)C3)nc([C@H]3CCC(C)(C)C3)c2nc1C [Example 302, (S)-4-(4-((S)-3,3-dimethylcyclopentyl)-6,7-dimethylpteridin-2-yl)-2-(1-methyl-1H-pyrazol-4-yl)morpholine] | 50 to 500 | + (Emax>45 and ≤100)
Cc1cc2c(OCC3CC(F)(F)C3)nc(N3CCO[C@@H](c4cnn(C)c4)C3)nc2nc1C [Example 108, 4-((3,3-difluorocyclobutyl)methoxy)-6,7-dimethyl-2-((2S)-2-(1-methyl-1H-pyrazol-4-yl)-4-morpholinyl)pyrido[2,3-d]pyrimidine] | 50 to 500 | + (Emax>45 and ≤100)
Cc1ccc(-c2nc(N3CCO[C@@H](c4ccnc(C)c4)C3)nc3nc(C)ccc23)c(F)c1 [Example 96, 4-(2-fluoro-4-methylphenyl)-7-methyl-2-((2S)-2-(2-methyl-4-pyridinyl)-4-morpholinyl)pyrido[2,3-d]pyrimidine] | ≤ 50 | ++++ (Emax>250)
Cc1nc2nc(N3CCO[C@@H](c4cnn(C)c4)C3)nc(N3CCC[C@H](F)C3)c2nc1C (single isomer, unassigned) [Example 70] | 500 to 3000 | + (Emax>45 and ≤100)
Cc1nc2nc(N3CCO[C@@H](c4cnn(C)c4)C3)nc(N3CCCC(F)(F)C3)c2nc1C [Example 68, 4-(3,3-difluoro-1-piperidinyl)-6,7-dimethyl-2-((2S)-2-(1-methyl-1H-pyrazol-4-yl)-4-morpholinyl)pteridine] | 3000 to 100000 | –
Cc1nc2cc(N3CCO[C@@H](c4cnn(C)c4)C3)nc(-c3ccc(Cl)cc3F)c2nc1C [Example 79, 5-(4-chloro-2-fluorophenyl)-2,3-dimethyl-7-((2S)-2-(1-methyl-1H-pyrazol-4-yl)-4-morpholinyl)pyrido[3,4-b]pyrazine] | ≤ 50 | ++++ (Emax>250)
Cc1nc2nc([C@H]3CCO[C@H](c4cnn(C)c4)C3)cc(-c3ccc(Cl)cc3F)c2nc1C (single isomer, unassigned) [Example 186] | 500 to 3000 | +++ (Emax>150 and ≤250)
Cc1cc([C@H]2CN(c3nc4nc(C)c(C)nc4c([C@H]4C[C@H](C(F)(F)F)C4)n3)CCO2)cnn1 [Example 51, 6,7-dimethyl-2-((2S)-2-(6-methyl-4-pyridazinyl)-4-morpholinyl)-4-(trans-3-(trifluoromethyl)cyclobutyl)pteridine] | ≤ 50 | +++ (Emax>150 and ≤250)
Cc1nc2nc(N3CCO[C@@H](c4cnn(C)c4)C3)nc(N3CC(C(F)F)C3)c2nc1C [Example 269, (S)-4-(4-(3-(difluoromethyl)azetidin-1-yl)-6,7-dimethylpteridin-2-yl)-2-(1-methyl-1H-pyrazol-4-yl)morpholine] | 3000 to 100000 | + (Emax>45 and ≤100)

Structure (SMILES) | EC50 [nM] | hTREM2 Emax
Cc1cc([C@H]2CN(c3nc(C4CC5(C4)CC(F)(F)C5)c4nc(C)c(C)nc4n3)CCO2)ccn1 [Example 56, 4-(6,6-difluorospiro[3.3]heptan-2-yl)-6,7-dimethyl-2-((2S)-2-(2-methyl-4-pyridinyl)-4-morpholinyl)pteridine] | ≤ 50 | ++ (Emax>100 and ≤150)
Cc1nc2nc(N3CCO[C@@H](c4cnn(C)c4)C3)nc([C@H]3CC[C@@H](C(F)(F)F)CC3)c2nc1C [Example 131, 6,7-dimethyl-2-((2S)-2-(1-methyl-1H-pyrazol-4-yl)-4-morpholinyl)-4-(cis-4-(trifluoromethyl)cyclohexyl)pteridine] | 50 to 500 | +++ (Emax>150 and ≤250)
Cc1cnc2nc(N3CCO[C@@H](c4cnn(C)c4)C3)cc(-c3ccc(Cl)cc3F)c2n1 [Example 158, 8-(4-chloro-2-fluorophenyl)-2-methyl-6-((2S)-2-(1-methyl-1H-pyrazol-4-yl)-4-morpholinyl)pyrido [2,3-b]pyrazine] | 50 to 500 | +++ (Emax>150 and ≤250)
Cc1ccc2c(-c3ccc(Cl)cc3F)nc(N3CCO[C@H](c4cnc(C)nc4)C3)nc2n1 (single isomer, unassigned) [Example 89] | 500 to 3000 | +++ (Emax>150 and ≤250)
Cc1cc([C@H]2CN(c3cc(-c4ccc(F)cc4F)c4cnc(C)nc4c3)CCO2)ccn1 [Example 154, 5-(2,4-difluorophenyl)-2-methyl-7-((2S)-2-(2-methyl-4-pyridinyl)-4-morpholinyl) quinazoline] | 50 to 500 | ++++ (Emax>250)
Cc1nc2cc([C@@H]3CCO[C@H](c4cnn(C)c4)C3)nc(-c3ccc(Cl)cc3F)c2nc1C (single isomer, unassigned) [Example 193] | 50 to 500 | ++++ (Emax>250)
Cc1cc([C@H]2CN(c3nc(-c4ccc(Cl)cc4F)c4ncc(C)nc4n3)CCO2)ccn1 [Example 3, 4-(4-chloro-2-fluorophenyl)-7-methyl-2-((2S)-2-(2-methyl-4-pyridinyl)-4-morpholinyl)pteridine] | ≤ 50 | +++ (Emax>150 and ≤250)
Cc1ccc(-c2nc([C@@H]3CCO[C@H](c4cnn(C)c4)C3)nc3nc(C)c(C)nc23)c(F)c1 (single isomer, unassigned) [Example 184] | 500 to 3000 | +++ (Emax>150 and ≤250)
Cc1cc([C@@H]2C[C@@H](c3nc(-c4ccc(Cl)cc4F)c4ccc(C)nc4n3)CCO2)ccn1 (single isomer, unassigned) [Example 220] | 50 to 500 | +++ (Emax>150 and ≤250)
Cc1cc2c(OC[C@@H]3C[C@H]3C(F)(F)F)nc(N3CCO[C@@H](c4cnn(C)c4)C3)nc2nc1C [Example 110, 6,7-dimethyl-2-((2S)-2-(1-methyl-1H-pyrazol-4-yl)-4-morpholinyl)-4-(((1R,2R)-2-(trifluoromethyl)cyclopropyl)methoxy)pyrido[2,3-d]pyrimidine] | 500 to 3000 | + (Emax>45 and ≤100)
Cc1nc2cc([C@H]3C[C@@H](C)O[C@@H](c4cnn(C)c4)C3)nc(-c3ccc(Cl)cc3F)c2nc1C (single isomer, unassigned) [Example 230] | 50 to 500 | ++++ (Emax>250)
Cc1nc2nc(N3CCO[C@@H](c4cnn(C)c4)C3)nc(N3CCC[C@@H](F)C3)c2nc1C (single isomer, unassigned) [Example 69] | 500 to 3000 | + (Emax>45 and ≤100)
Cc1cc([C@H]2CN(c3nc4nc(C)c(C)cc4c([C@H]4C[C@H](C(F)(F)F)C4)n3)CCO2)cnn1 (single isomer, unassigned) [Example 114] | ≤ 50 | +++ (Emax>150 and ≤250)
Cc1cc([C@H]2C[C@@H](c3nc(-c4ccc(Cl)cc4F)c4ncc(C)nc4n3)CCO2)ccn1 (single isomer, unassigned) [Example 171] | ≤ 50 | +++ (Emax>150 and ≤250)
Cc1cc([C@H]2CN(c3nc4nc(C)c(C)nc4c([C@H]4C[C@H](C(F)F)C4)n3)CCO2)ccn1 [Example 54, 4-(trans-3-(difluoromethyl)cyclobutyl)-6,7-dimethyl-2-((2S)-2-(2-methyl-4-pyridinyl)-4-morpholinyl)pteridine] | ≤ 50 | ++ (Emax>100 and ≤150)
Cc1ccc2c(-c3ccc(F)cc3F)nc([C@@H]3CCO[C@H](c4cnn(C)c4)C3)nc2n1 [Example 290, 4-(2,4-difluorophenyl)-7-methyl-2-((2S,4R)-2-(1-methyl-1H-pyrazol-4-yl)tetrahydro-2H-pyran-4-yl)pyrido[2,3-d] pyrimidine] | 50 to 500 | +++ (Emax>150 and ≤250)
